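Step 1: Grow cells in 96-well plates. Step 2: Expose to compound for 48 hours at 5 concentrations. Step 3: Interpolate endpoints linearly; if unreached, use highest concentration. GI50 is the concentration that inhibits growth by half. TGI: concentration producing complete growth inhibition.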
Experiments:
Assay in all cases: NCI-60 cell line screen, 48 h
[1] = test system: NCI-H460 lung
[2] = test system: HS 578T breast
[3] = test system: IGROV1 ovarian
[4] = test system: RXF 393 renal
[5] = test system: SK-MEL-5 melanoma
[6] = test system: SW-620 colon
[7] = test system: OVCAR-8 ovarian
[8] = test system: RPMI-8226 leukemia
[9] = test system: UACC-62 melanoma
[10] = test system: MOLT-4 leukemia

Row | Structure (SMILES) | TGI [1] [µM] | TGI [2] | TGI [3] | TGI [4] | TGI [5] | TGI [6] | TGI [7] | TGI [8] | TGI [9] | GI50 [1] [µM] | GI50 [2] | GI50 [3] | GI50 [4] | GI50 [5] | GI50 [6] | GI50 [7] | GI50 [8] | GI50 [9] | GI50 [10] | TGI [10]
1 | O=C1c2ccccc2C(O)(O)C1(O)C1(O)C(=O)c2ccccc2C1(O)O (stereo not given) | 37.3 | > 100 µM | > 100 µM | 81.8 µM | 39.4 µM | > 100 µM | > 100 µM | > 100 µM | > 100 µM | – | – | – | – | – | – | – | – | – | – | –
2 | CCN(CC)CCCCNc1c2ccccc2[n+](C)c2c1[nH]c1ccccc12 | 2.27 | 0.865 µM | 7.4 µM | 2.16 µM | 0.976 µM | 7.47 µM | 19.8 µM | 1.32 µM | 0.26 µM | 0.0837 | 0.238 µM | 0.473 µM | 0.402 µM | 0.283 µM | 0.395 µM | 0.786 µM | 0.255 µM | 0.0868 µM | 0.269 µM | 23.8 µM
3 | CCC1C2Cc3ccc(O)cc3C1(CC)CCN2C (stereo not given) | > 100 | > 100 µM | > 100 µM | > 100 µM | > 100 µM | > 100 µM | > 100 µM | > 100 µM | > 100 µM | – | – | – | – | – | – | – | – | – | – | > 100 µM
4 | COc1cc2ccc(/C=C\[N+](=O)[O-])cc2cc1OC | > 56.4 | 37.8 µM | 3.92 µM | 3.51 µM | 17.5 µM | > 24.6 µM | 9.72 µM | 5.44 µM | 21.7 µM | – | – | – | – | – | – | – | – | – | – | 19.1 µM
5 | COc1cc([N+](=O)[O-])c(OC)cc1-c1nc2sc(Cl)cn2c1/C(N)=N/C(=N)N | 46.7 | 6.8 µM | > 54.6 µM | 16.9 µM | 29.5 µM | 4.63 µM | – | 20.5 µM | 35.3 µM | 16.1 | 2.72 µM | 5.18 µM | 4.3 µM | 4.52 µM | 2.15 µM | – | 5.73 µM | 15 µM | 3.09 µM | > 100 µM
6 | COc1ccc2cc(C(=O)/C=C/c3ccc(Cl)cc3Cl)ccc2c1 | > 100 | 73.7 µM | – | 14.5 µM | 29.9 µM | 25.5 µM | 30.4 µM | > 100 µM | 86.5 µM | 70.7 | 28.1 µM | – | 4.52 µM | 12.1 µM | 7.83 µM | 14.8 µM | 6.81 µM | 12 µM | 4.01 µM | 17.7 µM
7 | COc1cnc2c(c1)C(=O)c1c-2n(CCCn2ccnc2)c(=O)c2cc(F)ccc12 | 0.133 | > 100 µM | – | 0.171 µM | 0.0717 µM | 1.01 µM | 13.9 µM | 0.248 µM | – | < 0.01 | 0.504 µM | – | 0.0309 µM | 0.0169 µM | 0.0221 µM | 0.0151 µM | < 0.01 µM | – | < 0.01 µM | 0.131 µM
8 | COC(=O)c1nc(-c2ccccc2)oc1S(=O)(=O)Cc1ccccc1 | 40 | 60.1 µM | 7.21 µM | 3.5 µM | – | 4.14 µM | 28.2 µM | 9.51 µM | 20 µM | 19.8 | 19.2 µM | 2.75 µM | 1.87 µM | – | 2.05 µM | 12.1 µM | 3.05 µM | 6.52 µM | 2.11 µM | 5.57 µM
9 | COc1cc(NC(C)CCCNC2CN3CCC2CC3)c2ncccc2c1 (stereo not given) | 32.3 | 39.6 µM | 31.2 µM | 15.4 µM | 5.6 µM | 27.6 µM | 30.1 µM | – | 10.5 µM | 15.9 | 14.8 µM | 11.5 µM | 3.44 µM | 2.23 µM | 11.9 µM | 13.7 µM | – | 3.2 µM | 12.8 µM | 31.8 µM
10 | COc1cc(C(=O)O[C@H](C(=O)NCCCCCNC(=O)[C@@H](OC(=O)c2cc(OC)cc3c(C)cccc23)[C@]2(C)CO2)[C@]2(C)CO2)c2cccc(C)c2c1 | 0.675 | 6.51 µM | > 100 µM | 0.025 µM | 0.501 µM | > 100 µM | – | 10.2 µM | 1.08 µM | – | 0.943 µM | 1.43 µM | < 0.01 µM | 0.166 µM | < 0.0149 µM | – | 1.82 µM | 0.53 µM | < 0.01 µM | > 100 µM
11 | CCC(C)(CC(C)(C)C(=O)NCC(=O)NC(Cc1ccccc1)C(=O)NC(Cc1ccccc1)C(=O)NCC(=O)NC1CC(OC2CC(O)(C(=O)CO)Cc3c(O)c4c(c(O)c32)C(=O)c2c(OC)cccc2C4=O)OC(C)C1O)C(=O)NCC(C)O (stereo not given) | – | > 150 µg/mL | > 150 µg/mL | > 150 µg/mL | 148 µg/mL | > 150 µg/mL | > 150 µg/mL | > 150 µg/mL | > 150 µg/mL | – | > 150 µg/mL | 41.7 µg/mL | > 150 µg/mL | 28.8 µg/mL | 131 µg/mL | 138 µg/mL | 36 µg/mL | 75 µg/mL | 7.84 µg/mL | 96.6 µg/mL
12 | CC(C)N(Cc1ccccc1)c1c(S)ssc1=S | 10.7 | 7.08 µM | – | 10.1 µM | 2.82 µM | 12.7 µM | 22.2 µM | 6.27 µM | 15 µM | 2.33 | 0.861 µM | – | 2.17 µM | 0.605 µM | 2.69 µM | 2.44 µM | 0.772 µM | 0.452 µM | 1.69 µM | 7.39 µM

Reference: PubChem BioAssay (NCI)
